System: arachidonic acid-induced ear edema
Assay: Arachidonic acid-induced mouse ear edema test, single topical application
Format: in vivo, Balb/c mice
Set-up: Mean ear edema: unit not given here
Settings: indomethacin 5%, ivermectin 1%, diclofenac 1%; for Mean ear edema: single topical application on right ear with AA 4%; for Inhibition vs AA 4%: single topical application with AA 4%
Experimental: Example 1: Evaluation of the Anti-Inflammatory Activity of Ivermectin and Diclofenac after a Single Topical Application in the Arachidonic Acid-Induced Mouse Ear Edema Test on Balb/c Mice
Arachidonic acid is dissolved in a mixture of THF/Methanol at 4%.
Tested compounds were dissolved in arachidonic acid solution, at final concentration.
20 μl of the tested compound is dissolved in arachidonic acid solution and applied on the internal side of the right ear.
The ear thickness is measured at T=0 h, T+1 h, T+2 h, T+4 h.
THF/Methanol is used as vehicle control.
Indomethacin 5% is used as positive control and arachidonic acid at 4% in THF/Methanol is used as inductor of inflammation.

[1] = ear thickness measurement after 1 h
[2] = ear thickness measurement after 2 h
[3] = ear thickness measurement after 4 h

| Compound | Mean ear edema (1 h measurement) | Mean ear edema (2 h measurement) | Mean ear edema (4 h measurement) | Inhibition vs AA 4% (1 h measurement) | Inhibition vs AA 4% (2 h measurement) | Inhibition vs AA 4% (4 h measurement) | inhibition of the ear edema caused by arachidonic acid [1] | inhibition of the ear edema caused by arachidonic acid [2] | inhibition of the ear edema caused by arachidonic acid [3] |
| --- | --- | --- | --- | --- | --- | --- | --- | --- | --- |
| CCCCC/C=C\C/C=C\C/C=C\C/C=C\CCCC(=O)O [Arachidonic acid (AA), Arachidonic acid] | 18.8 | 16.2 | 13.4 | – | – | – | – | – | – |
| O=C(O)Cc1ccccc1Nc1c(Cl)cccc1Cl [diclofenac, 2-(2-(2,6-dichlorophenylamino)phenyl)acetic acid] | 6 | 4 | 3 | 68.1 | 75.3 | 77.6 | 68% | 75% | 78% |
| COc1ccc2c(c1)c(CC(=O)O)c(C)n2C(=O)c1ccc(Cl)cc1 [indomethacin] | 1 | 1 | 1 | 94.7 | 93.8 | 92.5 | 95% | 94% | 92.5% |
| ivermectin | 8.2 | 8.6 | 6.2 | 56.4 | 46.9 | 53.7 | 56% | 47% | 54% |

Reference: patent publication US10874682B2, “Compositions and the use thereof for treating or preventing rosacea” (NESTLÉ SKIN HEALTH SA, priority 2016, dated 2020)
